Source: ChEMBL document CHEMBL4387706, “Discovery of Novel Spiroindoline Derivatives as Selective Tankyrase Inhibitors” (J Med Chem, 2019)
Values after ≈ are worked out from the molar mass of the structure shown. Active and inactive are the calls of the source. The rule behind the calls is not given here.

Key:
physchem = details: phosphate buffer, pH 7.4
[1] = Half life in ICR mouse at 50 mg/kg, ip; assay type: ADME, organism-based; details: in vivo
[2] = target: Sodium-dependent serotonin transporter (Homo sapiens) (UniProt P31645); assay: Displacement of [3H]paroxetine from full-length recombinant human SET receptor expressed in HEK293 cells at 10 uM measured after 60 mins by scintillation counting method relative to control; assay type: cell-based
[3] = Cmax in ICR mouse at 50 mg/kg, ip; assay type: ADME, organism-based; set-up: dose 50 mg/kg, route intraperitoneal; details: in vivo
[4] = target: Beta-1 adrenergic receptor (Homo sapiens) (UniProt P08588); assay: Displacement of [125I]cyanopindolol from full-length recombinant human beta1 receptor expressed in CHOK1 cells at 10 uM measured after 120 mins by scintillation counting method relative to control; assay type: cell-based
Homo sapiens [5] = organism: Homo sapiens; assay: Effect on hippo signaling protein in human COLO320DM cells assessed as change in AMOTL2 expression at 0.033 to 1 uM measured after 48 hrs by RT-PCR analysis; assay type: cell-based
[6] = target: Histamine H1 receptor (Homo sapiens) (UniProt P35367); assay: Displacement of [3H]pyrilamine from full-length recombinant human H1 receptor expressed in CHOK1 cells at 10 uM measured after 180 mins by scintillation counting method relative to control; assay type: cell-based
[7] = target: Muscarinic acetylcholine receptor M1 (Homo sapiens) (UniProt P11229); assay: Displacement of [3H]N-Methylscopolamine from full-length recombinant human M1 receptor expressed in CHOK1 cells at 10 uM measured after 120 mins by scintillation counting method relative to control; assay type: cell-based
MAOA = MAOA (Homo sapiens, UniProt P21397); assay: Inhibition of full-length recombinant human MAOA expressed in insect cells at 10 uM using kynuramine as substrate preincubated for 15 mins followed by substrate addition and measured after 60 mins by spectrofluorimetric method relative to control; details: probe kynuramine
[8] = target: 5-hydroxytryptamine receptor 2A (Homo sapiens) (UniProt P28223); assay: Displacement of [3H]ketanserin from full-length recombinant human 5HT2A receptor expressed in CHOK1 cells at 10 uM measured after 60 mins by scintillation counting method relative to control; assay type: cell-based
[9] = target: Alpha-2A adrenergic receptor (Homo sapiens) (UniProt P08913); assay: Displacement of [3H]rauwolscine from full-length recombinant human alpha2A receptor expressed in CHOK1 cells at 10 uM measured after 60 mins by scintillation counting method relative to control; assay type: cell-based
[10] = target: Sodium-dependent dopamine transporter (Homo sapiens) (UniProt Q01959); assay: Displacement of [125I]RTI-55 from full-length recombinant human DAT receptor expressed in CHOS cells at 10 uM measured after 3 hrs by scintillation counting method relative to control; assay type: cell-based
COLO 320DM = assay: Antitumor activity against human COLO320DM cells xenografted in mouse assessed as tumor growth inhibition at 300 mg/kg, ip administered twice daily for 11 days relative to control; assay type: functional; details: 264 h, read-out: TGI
Homo sapiens [11] = organism: Homo sapiens; assay: Effect on hippo signaling protein in human COLO320DM cells assessed as change in CYR61 expression at 0.033 to 1 uM measured after 48 hrs by RT-PCR analysis; assay type: cell-based
[12] = target: Histamine H2 receptor (Homo sapiens) (UniProt P25021); assay: Displacement of [125I]aminopotentidine from full-length recombinant human H2 receptor expressed in CHOK1 cells at 10 uM measured after 120 mins by scintillation counting method relative to control; assay type: cell-based
[13] = target: Cannabinoid receptor 1 (Homo sapiens) (UniProt P21554); assay: Displacement of [3H]SR141716A from full-length recombinant human CB1 receptor expressed in human Chem1 cells at 10 uM measured after 60 mins by scintillation counting method relative to control; assay type: cell-based
Homo sapiens [14] = organism: Homo sapiens; assay: Effect on hippo signaling protein in human COLO320DM cells assessed as change in CTGF expression at 0.033 to 1 uM measured after 48 hrs by RT-PCR analysis; assay type: cell-based
[15] = AUC (infinity) in ICR mouse at 50 mg/kg, ip; assay type: ADME, organism-based; set-up: dose 50 mg/kg, route intraperitoneal, time infinity; details: in vivo
[16] = target: Neuronal acetylcholine receptor; alpha4/beta2 (Homo sapiens) (UniProt P17787+P43681); assay: Displacement of [3H]cytisine from full-length recombinant human alpha4/beta2 nACHR expressed in human SH-SY5Y cells at 10 uM measured after 120 mins by scintillation counting method relative to control; assay type: cell-based
[17] = target: Cholecystokinin receptor type A (Homo sapiens) (UniProt P32238); assay: Displacement of [125I]CCK8 from full-length recombinant human CCK1 receptor expressed in human 1321N1 cells at 10 uM measured after 3 hrs by scintillation counting method relative to control; assay type: cell-based
[18] = target: Sodium-dependent noradrenaline transporter (Homo sapiens) (UniProt P23975); assay: Displacement of [125I]RTI-55 from full-length recombinant human NET receptor expressed in MDCK cells at 10 uM measured after 3 hrs by scintillation counting method relative to control; assay type: cell-based
[19] = target: 5-hydroxytryptamine receptor 1B (Homo sapiens) (UniProt P28222); assay: Displacement of [3H]GR125743 from full-length recombinant human 5HT1B receptor expressed in human Chem1 cells at 10 uM measured after 90 mins by scintillation counting method relative to control; assay type: cell-based
Rattus norvegicus = organism: Rattus norvegicus; assay: Displacement of [3H]batrachotoxinin from Wistar rat brain sodium channel site 2 at 10 uM after 60 mins by scintillation counting analysis relative to control
[20] = Toxicity in mouse xenografted with human COLO320DM cells assessed as body weight loss at 150 mg/kg, ip administered twice daily for 11 days; assay type: organism-based; details: in vivo, 264 h
[21] = target: Muscarinic acetylcholine receptor M3 (Homo sapiens) (UniProt P20309); assay: Displacement of [3H]N-Methylscopolamine from full-length recombinant human M3 receptor expressed in CHOK1 cells at 10 uM measured after 120 mins by scintillation counting method relative to control; assay type: cell-based
[22] = target: Vasopressin V1a receptor (Homo sapiens) (UniProt P37288); assay: Displacement of [125I]Phenylacetyl-D-Tyr(Me)-Phe-Gln-Asn-Arg-Pro-Arg-Tyr-NH2 from full-length recombinant human V1A receptor expressed in HEK293 cells at 10 uM measured after 120 mins by scintillation counting method relative to control; assay type: cell-based
[23] = target: Tankyrase 1/2 (Homo sapiens) (UniProt Q9H2K2+O95271); assay: Inhibition of TNKS/TNKS2-mediated beta-catenin signaling in human COLO320DM cells assessed as down regulation of TCF7 mRNA expression at 0.033 to 1 uM measured after 48 hrs by RT-PCR analysis; assay type: cell-based
hERG (KCNH2) = hERG (KCNH2) (Homo sapiens, UniProt Q12809); assay: Displacement of [3H]dofetilide from full-length recombinant human ERG receptor expressed in HEK293 cells at 10 uM measured after 60 mins by scintillation counting method relative to control; assay type: cell-based; details: HEK293 cells expressing recombinant human ERG, probe [3H]dofetilide
[24] = target: Cannabinoid receptor 2 (Homo sapiens) (UniProt P34972); assay: Displacement of [3H]WIN55212-2 from full-length recombinant human CB2 receptor expressed in human Chem1 cells at 10 uM measured after 90 mins by scintillation counting method relative to control; assay type: cell-based

Sequence of 5-hydroxytryptamine receptor 2A (Homo sapiens) (P28223 whole entry): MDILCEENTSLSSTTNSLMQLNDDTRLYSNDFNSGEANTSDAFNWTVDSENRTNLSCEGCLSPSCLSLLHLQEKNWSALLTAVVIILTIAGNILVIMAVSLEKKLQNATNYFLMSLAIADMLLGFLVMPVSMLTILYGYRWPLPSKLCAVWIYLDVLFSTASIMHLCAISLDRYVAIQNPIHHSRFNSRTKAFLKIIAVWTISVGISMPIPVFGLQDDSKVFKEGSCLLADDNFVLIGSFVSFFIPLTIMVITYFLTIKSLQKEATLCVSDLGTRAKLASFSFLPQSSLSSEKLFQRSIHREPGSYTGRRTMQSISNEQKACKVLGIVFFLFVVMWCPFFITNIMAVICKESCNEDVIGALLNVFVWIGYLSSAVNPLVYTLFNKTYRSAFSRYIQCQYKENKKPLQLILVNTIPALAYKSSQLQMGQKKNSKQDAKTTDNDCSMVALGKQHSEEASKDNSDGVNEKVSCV
Sequence of Histamine H1 receptor (Homo sapiens) (P35367 whole entry): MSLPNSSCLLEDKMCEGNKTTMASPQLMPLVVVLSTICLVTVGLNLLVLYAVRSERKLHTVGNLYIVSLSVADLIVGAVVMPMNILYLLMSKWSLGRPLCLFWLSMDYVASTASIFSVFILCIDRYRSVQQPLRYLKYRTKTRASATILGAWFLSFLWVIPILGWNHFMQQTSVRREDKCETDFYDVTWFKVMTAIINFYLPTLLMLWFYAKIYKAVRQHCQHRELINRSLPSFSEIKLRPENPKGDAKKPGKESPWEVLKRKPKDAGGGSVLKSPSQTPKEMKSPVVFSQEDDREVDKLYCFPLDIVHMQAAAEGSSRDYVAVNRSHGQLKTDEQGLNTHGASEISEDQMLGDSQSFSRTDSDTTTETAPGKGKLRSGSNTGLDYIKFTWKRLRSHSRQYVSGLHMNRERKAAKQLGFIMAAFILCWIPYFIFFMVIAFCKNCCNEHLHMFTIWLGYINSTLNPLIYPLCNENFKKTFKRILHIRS
Sequence of Sodium-dependent dopamine transporter (Homo sapiens) (Q01959 whole entry): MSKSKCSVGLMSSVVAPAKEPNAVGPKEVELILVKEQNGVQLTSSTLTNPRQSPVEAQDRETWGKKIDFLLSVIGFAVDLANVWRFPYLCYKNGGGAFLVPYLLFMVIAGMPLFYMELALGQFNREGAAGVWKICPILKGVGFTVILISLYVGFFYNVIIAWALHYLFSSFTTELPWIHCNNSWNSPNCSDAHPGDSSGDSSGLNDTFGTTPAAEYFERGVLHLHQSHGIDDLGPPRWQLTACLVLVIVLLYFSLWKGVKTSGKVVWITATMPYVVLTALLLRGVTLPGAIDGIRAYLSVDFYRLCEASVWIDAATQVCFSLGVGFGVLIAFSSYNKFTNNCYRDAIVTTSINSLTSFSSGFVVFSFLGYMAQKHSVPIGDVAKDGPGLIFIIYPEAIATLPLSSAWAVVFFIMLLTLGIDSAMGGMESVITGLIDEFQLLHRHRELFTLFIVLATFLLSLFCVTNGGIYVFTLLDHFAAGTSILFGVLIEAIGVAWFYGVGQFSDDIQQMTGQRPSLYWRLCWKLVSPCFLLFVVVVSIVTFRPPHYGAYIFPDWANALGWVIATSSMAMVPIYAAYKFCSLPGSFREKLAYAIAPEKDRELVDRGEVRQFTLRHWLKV
Sequence of Muscarinic acetylcholine receptor M1 (Homo sapiens) (P11229 whole entry): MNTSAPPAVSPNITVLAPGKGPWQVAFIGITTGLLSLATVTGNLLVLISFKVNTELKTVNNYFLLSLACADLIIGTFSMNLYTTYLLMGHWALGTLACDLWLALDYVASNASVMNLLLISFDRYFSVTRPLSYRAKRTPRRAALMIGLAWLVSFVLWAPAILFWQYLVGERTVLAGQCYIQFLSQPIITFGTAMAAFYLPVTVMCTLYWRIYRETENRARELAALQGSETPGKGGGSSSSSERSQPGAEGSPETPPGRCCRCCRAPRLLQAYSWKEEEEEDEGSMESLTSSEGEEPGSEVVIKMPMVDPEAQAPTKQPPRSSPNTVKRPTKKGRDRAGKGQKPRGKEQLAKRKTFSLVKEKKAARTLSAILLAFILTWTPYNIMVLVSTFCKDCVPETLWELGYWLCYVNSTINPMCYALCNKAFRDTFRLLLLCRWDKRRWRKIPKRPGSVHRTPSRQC
Sequence of Sodium-dependent noradrenaline transporter (Homo sapiens) (P23975 whole entry): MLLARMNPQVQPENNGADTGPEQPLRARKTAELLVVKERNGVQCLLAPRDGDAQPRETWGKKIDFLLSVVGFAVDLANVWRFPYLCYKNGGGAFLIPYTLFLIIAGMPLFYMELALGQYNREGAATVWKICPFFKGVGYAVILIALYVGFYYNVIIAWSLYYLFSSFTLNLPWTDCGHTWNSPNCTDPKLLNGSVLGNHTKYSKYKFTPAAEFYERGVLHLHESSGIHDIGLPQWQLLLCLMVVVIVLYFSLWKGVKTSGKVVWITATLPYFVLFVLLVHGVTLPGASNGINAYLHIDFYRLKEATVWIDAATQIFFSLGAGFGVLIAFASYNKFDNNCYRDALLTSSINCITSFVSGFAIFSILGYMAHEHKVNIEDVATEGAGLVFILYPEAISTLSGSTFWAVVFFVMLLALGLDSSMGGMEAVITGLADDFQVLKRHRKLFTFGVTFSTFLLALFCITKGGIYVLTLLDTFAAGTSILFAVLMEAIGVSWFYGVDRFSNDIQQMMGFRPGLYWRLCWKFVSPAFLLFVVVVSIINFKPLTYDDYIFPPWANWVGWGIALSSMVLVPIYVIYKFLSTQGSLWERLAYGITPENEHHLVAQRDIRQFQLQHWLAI
Sequence of Cannabinoid receptor 1 (Homo sapiens) (P21554 whole entry): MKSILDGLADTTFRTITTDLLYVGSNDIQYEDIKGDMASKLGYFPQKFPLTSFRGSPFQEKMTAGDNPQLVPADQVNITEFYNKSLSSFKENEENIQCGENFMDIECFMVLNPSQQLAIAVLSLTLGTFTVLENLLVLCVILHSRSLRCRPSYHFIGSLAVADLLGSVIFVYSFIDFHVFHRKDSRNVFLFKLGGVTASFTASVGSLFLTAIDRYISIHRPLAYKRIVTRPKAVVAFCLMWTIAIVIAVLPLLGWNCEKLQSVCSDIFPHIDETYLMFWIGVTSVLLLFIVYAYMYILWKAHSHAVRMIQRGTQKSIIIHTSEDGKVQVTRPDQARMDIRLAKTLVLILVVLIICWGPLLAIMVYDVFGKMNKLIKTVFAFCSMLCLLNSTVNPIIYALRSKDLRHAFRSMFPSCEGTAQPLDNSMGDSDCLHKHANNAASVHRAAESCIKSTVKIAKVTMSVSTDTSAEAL
Sequence of hERG (KCNH2) (Q12809 whole entry): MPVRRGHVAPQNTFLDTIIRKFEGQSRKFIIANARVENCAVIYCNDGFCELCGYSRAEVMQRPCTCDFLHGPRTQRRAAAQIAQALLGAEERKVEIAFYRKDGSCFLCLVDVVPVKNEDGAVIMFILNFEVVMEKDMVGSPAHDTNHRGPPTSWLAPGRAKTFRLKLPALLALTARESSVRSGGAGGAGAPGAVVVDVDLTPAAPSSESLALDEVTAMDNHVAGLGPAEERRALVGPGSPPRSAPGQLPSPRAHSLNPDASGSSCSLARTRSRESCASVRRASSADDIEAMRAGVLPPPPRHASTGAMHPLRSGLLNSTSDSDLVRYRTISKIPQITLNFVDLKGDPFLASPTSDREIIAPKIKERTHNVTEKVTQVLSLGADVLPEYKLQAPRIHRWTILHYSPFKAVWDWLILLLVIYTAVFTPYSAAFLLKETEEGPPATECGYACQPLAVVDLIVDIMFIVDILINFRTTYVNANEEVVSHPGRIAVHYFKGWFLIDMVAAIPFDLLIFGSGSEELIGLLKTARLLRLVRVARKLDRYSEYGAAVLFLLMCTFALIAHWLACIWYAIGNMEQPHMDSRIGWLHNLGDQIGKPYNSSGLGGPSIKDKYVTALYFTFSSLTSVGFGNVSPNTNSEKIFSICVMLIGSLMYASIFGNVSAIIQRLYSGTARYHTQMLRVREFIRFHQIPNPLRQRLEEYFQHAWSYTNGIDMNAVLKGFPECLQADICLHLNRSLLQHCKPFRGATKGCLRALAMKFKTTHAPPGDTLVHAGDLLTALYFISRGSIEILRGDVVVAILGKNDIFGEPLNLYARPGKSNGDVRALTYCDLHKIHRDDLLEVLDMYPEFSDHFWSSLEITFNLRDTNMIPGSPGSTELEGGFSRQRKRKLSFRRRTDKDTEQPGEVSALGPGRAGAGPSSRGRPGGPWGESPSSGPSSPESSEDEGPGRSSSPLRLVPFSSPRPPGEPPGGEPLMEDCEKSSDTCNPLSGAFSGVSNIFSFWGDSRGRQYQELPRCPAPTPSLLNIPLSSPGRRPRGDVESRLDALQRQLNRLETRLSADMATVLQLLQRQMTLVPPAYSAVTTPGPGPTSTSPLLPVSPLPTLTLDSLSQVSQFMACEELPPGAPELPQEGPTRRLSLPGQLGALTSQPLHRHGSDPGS
Sequence of Cholecystokinin receptor type A (Homo sapiens) (P32238 whole entry): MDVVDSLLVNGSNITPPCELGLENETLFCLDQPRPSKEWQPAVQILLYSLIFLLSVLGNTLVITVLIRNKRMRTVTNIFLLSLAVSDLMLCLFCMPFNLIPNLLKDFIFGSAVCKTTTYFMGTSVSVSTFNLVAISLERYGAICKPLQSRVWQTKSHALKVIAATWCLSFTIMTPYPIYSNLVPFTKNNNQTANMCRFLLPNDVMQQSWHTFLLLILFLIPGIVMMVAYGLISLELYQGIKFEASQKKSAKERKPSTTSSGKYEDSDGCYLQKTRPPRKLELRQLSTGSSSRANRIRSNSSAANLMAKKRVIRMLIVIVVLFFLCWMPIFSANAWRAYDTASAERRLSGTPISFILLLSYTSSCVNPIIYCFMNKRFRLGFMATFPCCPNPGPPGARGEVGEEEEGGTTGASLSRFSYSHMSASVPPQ

COc1ccccc1N1CCN(c2nc3c(c(=O)[nH]2)CCCC3)CC1
solubility at 1 h, 200 µM (physchem): 10 µg/mL (≈ 29.4 µM)

O=c1[nH]c(N2CCC3(CC2)CN(CCO)c2cc(F)cc(F)c23)nc2c1CCCC2
half-life [1]: 2.8 h | inhibition [2]: > 20% | Cmax [3]: 199 µM | inhibition [4]: > 20% | Activity (Homo sapiens [5]): inactive | inhibition [6]: > 20% | inhibition [7]: > 20% | inhibition at 1 h, 10 µM (MAOA): > 20% | inhibition [8]: > 20% | inhibition [9]: > 20% | inhibition [10]: > 20% | inhibition in vivo at 300 mg/kg (COLO 320DM): 51.9% | Activity (Homo sapiens [11]): inactive | inhibition [12]: > 20% | inhibition [13]: > 20% | Activity (Homo sapiens [14]): inactive | AUC(0-inf) [15]: 555 µM·h | inhibition [16]: > 20% | inhibition [17]: > 20% | inhibition [18]: > 20% | inhibition [19]: > 20% | inhibition (Rattus norvegicus): > 20% | Activity [20]: Non-Toxic | inhibition [21]: > 20% | inhibition [22]: > 20% | inhibition [23]: Active | inhibition at 1 h, 10 µM (hERG (KCNH2)): > 20% | inhibition [24]: > 20%
